Assay results: publication PMC5414857 (Toxicological Sciences, 2017)

Target: bile salt export pump (BSEP) (Homo sapiens, UniProt O95342)
Type: biochemical

Chain of bile salt export pump (BSEP) (O95342 whole entry): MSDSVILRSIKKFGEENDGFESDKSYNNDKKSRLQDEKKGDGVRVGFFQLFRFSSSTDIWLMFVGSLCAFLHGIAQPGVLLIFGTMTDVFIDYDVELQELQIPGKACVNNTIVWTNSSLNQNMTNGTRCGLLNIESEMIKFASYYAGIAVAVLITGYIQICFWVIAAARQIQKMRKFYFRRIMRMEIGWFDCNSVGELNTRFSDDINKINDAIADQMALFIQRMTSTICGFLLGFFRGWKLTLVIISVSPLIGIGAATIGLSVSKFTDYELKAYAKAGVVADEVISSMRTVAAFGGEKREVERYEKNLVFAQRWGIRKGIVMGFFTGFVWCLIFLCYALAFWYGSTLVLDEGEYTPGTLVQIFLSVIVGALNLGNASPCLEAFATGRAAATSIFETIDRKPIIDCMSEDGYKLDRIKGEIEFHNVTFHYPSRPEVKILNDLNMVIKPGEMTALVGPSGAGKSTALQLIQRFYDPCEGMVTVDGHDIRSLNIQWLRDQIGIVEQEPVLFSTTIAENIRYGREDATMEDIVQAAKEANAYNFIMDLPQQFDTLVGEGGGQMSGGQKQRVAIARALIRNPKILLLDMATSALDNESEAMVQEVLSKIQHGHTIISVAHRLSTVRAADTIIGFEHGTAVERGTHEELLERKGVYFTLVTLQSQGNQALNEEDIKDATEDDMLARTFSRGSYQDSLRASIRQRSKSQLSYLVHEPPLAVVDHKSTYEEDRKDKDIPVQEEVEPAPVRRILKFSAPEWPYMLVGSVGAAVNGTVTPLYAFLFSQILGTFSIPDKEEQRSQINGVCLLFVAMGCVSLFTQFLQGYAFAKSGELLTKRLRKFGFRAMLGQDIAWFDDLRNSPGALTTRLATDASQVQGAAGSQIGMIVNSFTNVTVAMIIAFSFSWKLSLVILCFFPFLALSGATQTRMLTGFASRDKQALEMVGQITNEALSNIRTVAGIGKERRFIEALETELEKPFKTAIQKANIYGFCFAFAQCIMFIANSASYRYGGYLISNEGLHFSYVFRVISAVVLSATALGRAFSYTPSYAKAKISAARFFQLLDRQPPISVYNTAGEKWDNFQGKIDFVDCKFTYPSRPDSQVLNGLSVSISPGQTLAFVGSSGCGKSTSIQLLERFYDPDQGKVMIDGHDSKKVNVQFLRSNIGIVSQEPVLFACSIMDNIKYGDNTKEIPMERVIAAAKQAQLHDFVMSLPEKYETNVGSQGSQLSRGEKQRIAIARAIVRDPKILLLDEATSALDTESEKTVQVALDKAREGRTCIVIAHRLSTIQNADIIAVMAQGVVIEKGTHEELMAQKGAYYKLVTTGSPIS

## Cc1cc(OCCCS(C)(=O)=O)cc(C)c1-c1cccc(COc2ccc3c(c2)OC[C@H]3CC(=O)O)c1 [TAK-875]
  IC50: 14.3 µM
